From US20080200403A1, “9A-Carbamoyl and Thiocarbamoyl Azalides with Anti-Inflammatory Activity” (GLAXOSMITHKLINE, priority 2005, published 2008)
Like-named read-outs stand apart in the source and are kept apart here.

Tests used:
[1] = test system: A549; assay: MTT cytotoxicity assay on A549 cell line; assay type: cell-based
Experimental: (§1) To determine whether the anti-inflammatory activity of the test compounds was due to observed inhibition of cytokine production and inhibition of proliferation in vitro, and was not a consequence of cellular cytotoxicity, measurement of succinate dehydrogenase activity in living cells was performed. Cells were cultured for 24 h in RPMI medium as described above at 37° C. in the presence of the test compounds at concentrations of 50 μM and 12.5 μM. MTT [3-(4,5-dimethylthiazole-2-yl)-2,5-diphenyl tetrazolium bromide] (Promega, USA), a detection reagent, was then added and the cultures were incubated for 0.5-2 h. The amount of MTT-Formazan produced was determined using a spectrophotometer at 490 nm (Mosmann, J. Imnunol. Methods, 1983, 65: 55-63). Percentage of viable cells was calculated using the following formula:
(§2) % viable cells=([…]OD490 treated cells/OD490 nontreated cells)×100

[2] = test system: granulocytes; assay: Inhibition of degranulation of granulocytes (elastase release); assay type: cell-based, human; conditions: for inhibition at 50 µM: Homo sapiens, read-out: Percentage of inhibition of degranulation of granulocytes
Experimental: (§3) Granulocytes were obtained from heparinized whole blood using density gradient centrifugation. Erythrocytes were sedimented on 3% dextran T-500 (Amersham Pharmacia Biotech AB, Uppsala, Sweden). Leukocytes were centrifuged on Ficoll (Amersham Pharmacia Biotech AB, Uppsala, Sweden) for 35 min at 600 g at 20° C. The pellet of granulocytes was cleared from remaining erythrocytes by a brief hypotonic lysis.
1×10^6 granulocytes, isolated as described above, were resuspended in RPMI-1640 medium (Institute of Immunology, Croatia), and were incubated with 10 or 50 μM of test compound together with cytochalasine B (5 μg/mL) for 2 h at 37° C. Degranulation then was induced by the addition of 0.1 μM fMLP (Sigma, USA) or 0.5 μM A23187 (Calbiochem, USA). The activity of free neutrophil elastase was determined with a chromogenic substrate specific for human neutrophil elastase, such as n-methoxysuccinyl-1-alanyl-1-alanyl-1-prolyl-lvalyl-p-niytoanlide (Sigma Chemical Company, St Louis, Mo., USA) Elastase activity, as a marker of primary granules, was assessed in supernatant using a spectrophotometer at an absorbance of 405 nm. Results are expressed as the percent of inhibition of degranulation in unstimulated cells, and in stimulated cells treated with fMLP or A23187.

[3] = test system: Hep G2; assay: MTT cytotoxicity assay on Hep G2 cell line; assay type: cell-based
Experimental: as §1, §2

[4] = test system: TNF-α; assay: Lipopolysaccharide induced TNF-α production in Balb/cJ mice; assay type: in vivo; conditions: LPS stimulated Balb/cJ mice, 10 mg/kg b.w. intraperitoneally, plasma 90 min after challenge
Experimental: Male Balb/cJ mice (Iffa Credo, France), 18 animals weighing 25-33 g were randomly grouped (7 animals were treated with the test compounds, 7 were in positive control and 4 in negative control). Substances, as well as vehiculum [0.125% carboxymethyl-cellulose (Sigma, USA)], were administered intraperitoneally. Substances were administered in the dose of 10 mg/kg b.w. Administered volume was 10 mL/kg b.w. Thirty minutes later, lipopolysaccharide (LPS) (Sigma, USA) solution in sterile saline at concentration and volume of 25 μg/0.2 mL of sterile saline/mouse was intraperitoneally administered to each animal except those in negative control. Ninety minutes after the challenge all animals were bled to death by puncturing a carotis communis. Plasma concentration of TNF-α was determined by sandwich ELISA, using capture and detection antibodies (R&D, USA) according to manufacturer's recommendations. Results are presented in the following table as % of inhibition of TNF-α production in comparison to positive control (challenged but not treated animals).

[5] = test system: Male BALB/cJ mice; assay: Lung neutrophilia induced by bacterial lipopolysaccharide in male BALB/cJ mice; assay type: in vivo; conditions: single 5 mg dose i.p., intranasal LPS, BALF about 24 hours after LPS, compared to positive control
Experimental: Male BALB/cJ mice (Iffa Credo, France), with average weight ˜30 g were randomly grouped (n=7 in testing group, 8 in positive control, 7 in negative control). Mice were administered intraperitoneally (i.p.) a single 5 mg dose of test compound. Two hours after administration, 2 μg of bacterial lipopolysaccharide (LPS), dissolved in PBS in a volume of 60 μL, was intranasally administered to all experimental groups except the negative control group, which received the same volume (60 μL) of vehicle PBS. Animals were sacrificed approximately 24 hours after application of LPS in order to obtain bronchoalveolar lavage fluid (BALF), which was used to determine concentrations of IL-6 and TNF-α, absolute number of cells, and the percentage of neutophils in BALF. Results are expressed as percentage of decrease of total cell number, relative number of neutrophils, and TNF-α and IL-6 concentration in BALF of treated animals compared to positive control (LPS stimulated, but untreated animals).
Besides accumulation of inflammatory cells in BALF, the extent and anatomic site of pulmonary inflammation induced by LPS was assessed 24 hours after PBS or LPS exposure. Accumulation of granulocytes and mononuclear cells in peribronchial (PB) and perivascular (PV) lung tissue areas and in alveolar spaces was monitored following sacrifice of the animals.

[6] = test system: human granulocytes; assay: Oxidative burst inhibition assay on granulocytes (luminol); assay type: cell-based; conditions: Homo sapiens; for inhibition at 12.5 µM: compound 12.5 μM; for inhibition at 50 µM: compound 50 μM
Experimental: as §3
The effect of compounds on oxidative burst was investigated in vitro with oxidative burst assay in human granulocytes, isolated as described above. Assay was done in 96 well plate. Blood was obtained from healthy volunteers (Transfusion Center, Croatia) and human granulocytes were isolated by dextran sedimentation and ficoll extraction method, as described above. In each well 50000 isolated granulocytes were suspended in 100 μL of DMEM. Final concentrations of the tested compounds were 50 and 12.5 μM. Than, 50 μL of luminol (c=0.25 mg/mL) was added. Luminol as a detector of oxidative burst react with superoxide and light is produced as one of the reaction products. Subsequently, 50 μL of stimuli, phorbol-12-myristate acetate (PMA) (c=33 ng/mL) or Zymosan (c=120 μg/mL), were added.

[7] = A23187 0.5 μM stimulated, compound 10 μM
[8] = A23187 0.5 μM stimulated, compound 50 μM
[9] = fMLP 0.1 μM stimulated, compound 10 μM
[10] = fMLP 0.1 μM stimulated, compound 50 μM
[11] = PMA stimulated granulocytes, read-out: % inhibition of Oxidative burst PMA
[12] = Zymosan stimulated granulocytes, read-out: % inhibition of Oxidative burst Zymosan

## CCC1OC(=O)C(C)C(OC2CC(C)(OC)C(O)C(C)O2)C(C)C(OC2OC(C)CC(N(C)C)C2O)C(C)(O)CC(C)CN(C(=S)Nc2cccc(F)c2)C(C)C(O)C1(C)O (stereo not shown) [Compound 3]
[1]; A549, 24 h, compound 12.5 μM
  Percentage of viable cells after treatment: 100%
[1]; A549, 24 h, compound 50 μM
  Percentage of viable cells after treatment: >90%
[2]; [7]
  Percentage of inhibition of degranulation of granulocytes: 2%
[2]; [8]
  Percentage of inhibition of degranulation of granulocytes: 75%
[2]; [9]
  Percentage of inhibition of degranulation of granulocytes: 25%
[2]; [10]
  Percentage of inhibition of degranulation of granulocytes: 33%
[3]; Hep G2, 24 h, compound 12.5 μM
  Percentage of viable cells after treatment: 100%
[3]; Hep G2, 24 h, compound 50 μM
  Percentage of viable cells after treatment: >85%
[4]
  TNF-α (% inhibition): 29%

## CC[C@H]1OC(=O)[C@H](C)[C@@H](O[C@H]2C[C@@](C)(OC)[C@@H](O)[C@H](C)O2)[C@H](C)[C@@H](O[C@@H]2O[C@H](C)C[C@H](N(C)C)[C@H]2O)[C@](C)(OC)C[C@@H](C)C(=O)[C@H](C)[C@@H](O)[C@]1(C)O [Clarithromycin, clarithromycin, reference compound]
[1]; human, 24 h, 12.5 μM
  Percentage of viable cells after treatment: 100%
[1]; human, 24 h, 50 μM
  Percentage of viable cells after treatment: 100%
[5]
  percentage of decrease of IL-6 concentration in BALF: 60
  percentage of decrease of TNF-α concentration in BALF: 78
  percentage of decrease of relative number of neutrophils (% of neutrophils) in BALF: 36
  percentage of decrease of total cell number in BALF: 77
[6]; [11]
  inhibition at 12.5 µM: 0%
  inhibition at 50 µM: 3%
[6]; [12]
  inhibition at 12.5 µM: 4%
  inhibition at 50 µM: 19%
[3]; human, 24 h, 12.5 μM
  Percentage of viable cells after treatment: 100%
[3]; human, 24 h, 50 μM
  Percentage of viable cells after treatment: 100%
[4]
  TNF-α (% inhibition): 63%

## CC[C@H]1OC(=O)[C@H](C)[C@@H](O[C@H]2C[C@@](C)(OC)[C@@H](O)[C@H](C)O2)[C@H](C)[C@@H](O[C@@H]2O[C@H](C)C[C@H](N(C)C)[C@H]2O)[C@](C)(O)C[C@@H](C)CN(C)[C@H](C)[C@@H](O)[C@]1(C)O [Azithromycin, azithromycin, reference compound]
[1]; human, 24 h, 12.5 μM
  Percentage of viable cells after treatment: 100%
[1]; human, 24 h, 50 μM
  Percentage of viable cells after treatment: 100%
[2]; [8]
  inhibition at 50 µM: 16%
[2]; [10]
  inhibition at 50 µM: 36%
[5]
  percentage of decrease of IL-6 concentration in BALF: 72
  percentage of decrease of TNF-α concentration in BALF: 66
  percentage of decrease of relative number of neutrophils (% of neutrophils) in BALF: 37
  percentage of decrease of total cell number in BALF: 77
[6]; [11]
  inhibition at 12.5 µM: 0%
  inhibition at 50 µM: 20%
[6]; [12]
  inhibition at 12.5 µM: 0%
  inhibition at 50 µM: 16%
[3]; human, 24 h, 12.5 μM
  Percentage of viable cells after treatment: 100%
[3]; human, 24 h, 50 μM
  Percentage of viable cells after treatment: >95%
[4]
  TNF-α (% inhibition): 54%

## CCC1OC(=O)C(C)C(O)C(C)C(OC2OC(C)CC(N(C)C)C2O)C(C)(O)CC(C)CN(C(=S)NCc2ccccc2)C(C)C(O)C1(C)O (stereo not shown) [Compound 1]
[2]; [7]
  Percentage of inhibition of degranulation of granulocytes: 20%
[2]; [8]
  Percentage of inhibition of degranulation of granulocytes: 27%
[2]; [9]
  Percentage of inhibition of degranulation of granulocytes: 37%
[2]; [10]
  Percentage of inhibition of degranulation of granulocytes: 72%
[5]
  percentage of decrease of IL-6 concentration in BALF: 28
  percentage of decrease of TNF-α concentration in BALF: 41
  percentage of decrease of relative number of neutrophils (% of neutrophils) in BALF: 9
  percentage of decrease of total cell number in BALF: 50
[4]
  TNF-α (% inhibition): 31%

## CC[C@H]1OC(=O)[C@H](C)[C@@H](O[C@H]2C[C@@](C)(OC)[C@@H](O)[C@H](C)O2)[C@H](C)[C@@H](O[C@@H]2O[C@H](C)C[C@H](N(C)C)[C@H]2O)[C@](C)(O)C[C@@H](C)CN(C(=S)Nc2ccccc2F)[C@H](C)[C@@H](O)[C@]1(C)O [Compound 5]
[1]; human, 24 h, 12.5 μM
  Percentage of viable cells after treatment: 100%
[1]; human, 24 h, 50 μM
  Percentage of viable cells after treatment: 100%
[3]; human, 24 h, 12.5 μM
  Percentage of viable cells after treatment: 100%
[3]; human, 24 h, 50 μM
  Percentage of viable cells after treatment: 100%
[4]
  TNF-α (% inhibition): 50%

## CC[C@H]1OC(=O)[C@H](C)[C@@H](O[C@H]2C[C@@](C)(OC)[C@@H](O)[C@H](C)O2)[C@H](C)[C@@H](O[C@@H]2O[C@H](C)C[C@H](N(C)C)[C@H]2O)[C@](C)(O)C[C@@H](C)CN(C(=S)Nc2cccc(C(F)(F)F)c2)[C@H](C)[C@@H](O)[C@]1(C)O [Compound 4]
[6]; [11]
  inhibition at 12.5 µM: 16%
  inhibition at 50 µM: 85%
[6]; [12]
  inhibition at 12.5 µM: 0%
  inhibition at 50 µM: 100%
